From US20250325586A1, “TREATING CANCER” (priority 2022, published 2025)
“Also recorded” adds a separate entry of the source.

Columns and labels:
[1] = system: luciferase/TSHR+/+ K562 or luciferase/TSHR+/+ FTC133 cells; conditions: presence or absence of MEK inhibitor (10 nM trametinib, FTC133, 48 hours in FIG. 10A)
Protocol: Cytotoxicity assays: Cytotoxicity assays were performed as described elsewhere (see, e.g., Sterner, R. M. et al., Blood 133, 697-709 (2019)). In summation, luciferase/TSHR+/+K562 or luciferase/TSHR+/+FTC133 cells was used as a target cell. TSHR-CAR T cells or batch-matched control donor untransduced (non-transduced) T cells (UTD) were co-cultured with target cells at serial effector: target (E:T) ratios in T cell media. Cytotoxic efficiency was calculated by bioluminescence imaging on the Xenogen IVIS-200 Spectrum (PerkinElmer, Hopkinton, MA, USA) or Promega GlowMax Explorer (Promega Corporation, Fitchburg, WI, USA) at 24 hours, 48 hours, and 72 hours, as indicated in the specific experiment.
Cytotoxicity assays were performed as described elsewhere (Sterner, R. M. et al., Blood 133, 697-709 (2019)). Luciferase*TSHR*K562 or FTC133 cells were used as target cells. UTD or TSHR-CART cells were co-cultured with target cells at various effector: target (E:T) ratios in T cell medium. Cytotoxic efficiency was calculated by bioluminescence imaging on the Promega GlowMax Explorer (Promega Corporation, Fitchburg, WI, USA) at indicated time points.

ATC THJ-560 PDX tumors = test: Tumor volume of ATC PDX tumors treated with MEK/BRAF inhibitors; type: in vivo, NSG mice
Protocol: FIGS. 9A-9J. Treatment of thyroid tumors with MAPK inhibitors results in upregulation of TSHR. […] NSG mice treated with different daily doses of trametinib for 8 days and tumor volume regression was measured. FIG. 9B) TSHR expression was restored with higher dose of trametinib, whereas pERK expression was reduced. Right. […] Left. Association between H-score of TSHR and pERK in correlation with trametinib dose-escalation. […] Assessment of tumor volume on NSG mice treated with different doses of R05126766. […] Right. ICH tumor sections showing TSRH and pERK expression. Left. H-score of TSRH and pERK in association with increasing doses of R05126766. FIG. 9E) Experimental schema of an ATC PDX model treated with MAPK inhibitors (MEKi and BRAFi). […] Treatment was begun when tumors were ˜75-100 mm^3. […] Upper panel. H-score of TSHR in ATC-derived treated tumors (One-way ANOVA; **p<0.01; n=4 mice; error bars, SEM). Lower panel. TSHR expression assessment via IHC. […] Tumor volume assessment over a period of 7 days of MAPK inhibitors dosage. FIG. 9H) Experimental schema of an ATC PDX model treated with MEK inhibitors. NSG mice were implanted with ATC PDX tumors and treatment with MEK inhibitors (for 14 days) R05126766 and trametinib started (daily dosage) when tumors reached ˜75-100 mm^3. […] Upper panel. […]

[2] = system: TSHR expression in ATC PDX tumors (THJ-560 / MC-Th-560); test: IHC of TSHR and pERK in ATC PDX tumors treated with MEK/BRAF inhibitors; type: in vivo, NSG mice
Protocol: Immunostaining was performed on paraffin-embedded tissue. Thyroid tissue microarray (TMA) was made from archival samples. Paraffin blocks were cut into 5 μm thick sections. Slides were deparaffinized, and were rehydrated with decreasing concentrations of ethanol and finally in water. Antigen retrieval was performed using Antigen Retrieval Solution (pH 6 or pH 9) (Dako, Glostrup, Denmark), for at least 15 minutes in an autoclave, and cooling for 30 minutes at room temperature. Washing slides with 3% hydrogen peroxide (Fisher Scientific, Waltham, MA, USA) for 10 minutes blocked the activity of endogenous peroxidases. Primary anti-human antibodies were used for 60 minutes at room temperature and at the following dilutions: TSHR antibody at 1:500 (abcam, ab218108, Cambridge, UK) and NIS antibody at 1:200 (ProteinTech, 24324-1-AP, Rosemont, IL, USA), CD14 antibody at 1:100 (abcam, ab183322, Cambridge, UK), CD80 at 1:1000 (abcam, ab134120, Cambridge, UK), CD206 at 1:5000 (abcam, ab64693, Cambridge, UK), Ki67 at 1:1000 (abcam, ab15580, Cambridge, UK), cleaved caspase 3 (Asp175) CC3 at 1:100 (Cell Signaling 9661, Danvers, MA, USA), and CD31 at (Santa Cruz Biotechnology, sc-1506, Dallas, TX, USA).
In this model, 5 mm^3 MC-Th-560 ATC PDX tissue was surgically implanted into the right lateral flank of NSG mice and grown to ˜100 mm^3. Mice then received daily treatment with either vehicle control or trametinib (MEK inhibitor) at the indicated doses.
The following was performed to assess the kinetics of TSHR expression after MEK/BRAF inhibition. Mice were implanted with 5 mm^3 Th-560 ATC PDX tumors. When tumors reached ˜100 mm^3, mice were treated daily with either vehicle control or with 1.5 mg/kg R05126766 plus 1 mg/kg dabrafenib.
Immunostaining was performed on paraffin-embedded tissue. Thyroid tissue microarray (TMA) was made from archival samples. Paraffin blocks were cut into 5 μm thick sections. […] The primary antibody was detected using the Envision Labeled Kit (Dako, Glostrup, Denmark) according to the manufacturer's protocol. […]

[3] = one week of daily treatment at escalating doses, MC-Th-560 ATC PDX, vs placebo

SMILES | effect of MEK inhibitor on TSHR CART cell cytotoxicity [1] | anti-tumor activity (tumor volume by caliper) (ATC THJ-560 PDX tumors; 14 days daily, placebo, R05126766 or trametinib) | tumor volume, dose escalation (ATC THJ-560 PDX tumors; different daily doses (trametinib: 8 days)) | TSHR protein expression by IHC ([2]; 14 days daily oral, 1.5 mg/kg R05126766 or 1 mg/kg trametinib, vs vehicle/placebo) | TSHR expression by IHC, dose escalation [2, 3] | pERK expression by IHC, dose escalation [2, 3]
CC(=O)Nc1cccc(-n2c(=O)n(C3CC3)c(=O)c3c(Nc4ccc(I)cc4F)n(C)c(=O)c(C)c32)c1 [trametinib] | did not impair |  |  |  |  | 
CNS(=O)(=O)Nc1nccc(Cc2c(C)c3ccc(Oc4ncccn4)cc3oc2=O)c1F [Clone R05126766] |  | better anti-tumor activity in comparison to trametinib | dose-depended tumor reduction; also recorded: proportional to thyroid tumor volume reduction | elevated significantly; also recorded: increased TSHR expression | increase in TSHR expression; also recorded: increased expression of TSRH | reduction of pERK; also recorded: lower expression of pERK
